# Test results from publication PMC7688903 (Frontiers in Microbiology, 2020).
# “Also recorded” adds a separate entry of the source. Where a SMILES comes first, the peptide text is derived from it. Where no end group is shown, it is not given here. [ ]: non-standard residue; d: D form. 2Thi = N[C@@H](Cc1cccs1)C(=O)O; Aib = CC(C)(N)C(=O)O
# Experiments:
# [1] = plasma from healthy volunteers; details: human, 37°C, up to 36 h
# [2] = tested on: Trypsin; assay: trypsin in 0.1 M NH4HCO3 buffer (pH 8.2); details: 37°C, up to 24 h
# [3] = tested on: proteases secreted by S. aureus ATCC 25923; assay: in vitro; details: Staphylococcus aureus, S. aureus ATCC 25923 culture supernatant, pH 8
# Protocol: The stabilities of the peptides toward proteases secreted by E. coli ATCC 25922, P. aeruginosa ATCC 27853, A. baumannii ATCC 19606, S. aureus ATCC 25923, and C. albicans ATCC 10231 were also examined. Microbial supernatants were prepared by resuspending single colonies of each strain in 20 mL of an appropriate culture medium followed by incubation at 37°C overnight. MH broth and 2% tryptone/2% dextrose were used as the culture media for bacteria and yeast, respectively. Each culture was then centrifuged at 12,000 × g for 10 min and the supernatant was adjusted to pH 8.0 with HCl or NaOH and then filtered through a 0.22 μm sterile filter membrane ([Zaet et al., 2017]). The peptides were then dissolved in the filtered supernatants to a concentration of 0.5 mg/mL, and the peptide-free supernatants were used as negative controls. The samples were incubated at 37°C for 24 h in a water bath and then analyzed by RP-HPLC as described above.
# [4] = tested on: S. aureus ATCC 25923; assay: microbe, parasite or virus in culture; assay type: cell-based, Staphylococcus aureus; details: ATCC 25923, 20 h
# Protocol: (§1) The antimicrobial activities of the peptides were tested against E. coli ATCC 25922, P. aeruginosa ATCC 27853, carbapenem-resistant P. aeruginosa SIPI-012, A. baumannii ATCC 19606, carbapenem-resistant A. baumannii SIPI-025, S. aureus ATCC 25923, and C. albicans ATCC 10231. The minimum inhibitory concentration (MIC) values were determined using the microdilution method according to Clinical and Laboratory Standards Institute guidelines ([CLSI, 2008], [2012]). The peptides were dissolved in 10 mM PB to a concentration of 1280 μg/mL as stock solutions.
# (§2) For inoculum preparation of bacteria, morphologically similar colonies selected from fresh MH agar plates were transferred using a loop into approximately 10 mL of MH broth in a capped test tube and vortexed. The suspension was adjusted with MH broth to achieve a turbidity equivalent to a 0.5 McFarland standard (BaSO4 solution prepared spectrophotometrically). A working suspension was prepared by making a 1:15 dilution followed by a 1:20 dilution of the stock suspension with MH broth medium to obtain approximately 5 × 10^5 CFU/mL. For inoculum preparation of yeast, five fresh colonies of approximately 1 mm diameter were picked from 24-hour-old cultures of C. albicans and suspended in 5 mL of sterile 0.85% saline. The resulting suspension was vortexed and the cell density was adjusted by adding sufficient sterile saline to achieve a turbidity equivalent to a 0.5 McFarland standard. A working suspension was prepared by making a 1:100 dilution followed by a 1:20 dilution of the stock suspension with RPMI 1640 broth medium to obtain 0.5 × 10^3 to 2.5 × 10^3 CFU/mL. Intermediate twofold dilutions of the peptides were prepared in MH broth and RPMI 1640 medium, and 90 μL aliquots were added to each well in addition to 10 μL of the inoculum prepared above.
# (§3) Each plate included a growth control well and a sterility (uninoculated) control well. Colistin, vancomycin hydrochloride, and amphotericin B were used as positive controls for gram-negative bacteria, gram-positive bacteria, and fungi, respectively. The bacterial and fungal plates were incubated at 37°C for 20 h and 35°C for 48 h, respectively, both under ambient atmosphere. The inhibition of microbial growth was assessed visually. The MICs were determined from independent triplicate assays.
# [5] = tested on: E. coli ATCC 25922; assay type: cell-based, Escherichia coli; details: ATCC 25922, 20 h
# Protocol: as §1, §2, §3
# [6] = tested on: RAW 264.7 cells; assay: Cell viability assay (MTT); assay type: cell-based, mouse; details: 1–128 μM peptide in DMEM with 4% FBS, 42 h, 595 nm, triplicate
# Protocol: The peptides were dissolved in ddH2O to a concentration of 256 μM. RAW 264.7 cells were cultured in 100 μL of DMEM containing 10% FBS and seeded at a density of 1 × 10^4 cells in a 96-well culture plate. The plate was incubated at 37°C under 5% CO2 atmosphere overnight. After attaining 80% confluency, the cells were treated with various concentrations of the peptides (1–128 μM) dissolved in DMEM containing 4% FBS for 42 h. Cytotoxicity was determined using the MTT tetrazolium reduction assay and quantified spectrophotometrically at 595 nm using a SpectraMax i3x microplate reader. The cell viability was calculated with respect to control samples treated only with DMEM containing 4% FBS ([Khara et al., 2016]). Each test was done in triplicate and the concentration required for 50% inhibition of viability (IC50) was determined.
# [7] = tested on: human plasma proteases; assay: in vitro
# Protocol: The peptides were mixed with plasma from healthy volunteers to a final concentration of 0.1 mg/mL and incubated at 37°C. Aliquots (20 or 40 μL) were removed after 0, 2, 4, 6, 8, 12, 24, and 36 h, mixed with 0.05% TFA to a final concentration of 0.01 mg/mL, and incubated on ice for 10 min. After centrifugation (12,000 × g, 5 min), the supernatant was stored at −20°C. The samples were analyzed as described in section “Hydrophobicity” and quantified as described in section “Stability Toward Tryptic Degradation.” All stability tests were performed at least in triplicate. The identities of the metabolites after 12 h of degradation by plasma proteases were determined by LC-MS on a Waters Acquity UPLC-QDa system.
# [8] = tested on: C. albicans ATCC 10231; assay: microbe, parasite or virus in culture; assay type: cell-based, Candida albicans; details: ATCC 10231, 48 h
# Protocol: as §1, §2, §3
# [9] = tested on: carbapenem-resistant P. aeruginosa (CRPA) SIPI-012; assay type: cell-based, Pseudomonas aeruginosa; details: carbapenem-resistant (CRPA) SIPI-012, 20 h
# Protocol: as §1, §2, §3
# [10] = tested on: P. aeruginosa ATCC 27853; assay type: cell-based, Pseudomonas aeruginosa; details: ATCC 27853, 20 h
# Protocol: as §1, §2, §3
# [11] = tested on: carbapenem-resistant A. baumannii (CRAB) SIPI-025; assay type: cell-based, Acinetobacter baumannii; details: carbapenem-resistant (CRAB) SIPI-025, 20 h
# Protocol: as §1, §2, §3
# [12] = tested on: A. baumannii ATCC 19606; assay type: cell-based, Acinetobacter baumannii; details: ATCC 19606, 20 h
# Protocol: as §1, §2, §3
# [13] = tested on: human erythrocytes; assay: Hemolytic activity assay; assay type: cell-based; details: human RBC in PB, 37°C, 1 h, OD420, total lysis control 0.1% SDS, three technical replicates
# Protocol: Whole blood was obtained from a healthy volunteer. The red blood cells (RBC) were then centrifuged (800 × g, 10 min), washed twice with PB, resuspended in 1 mL of PB, and incubated with various concentrations of the peptides (32–128 μM) at 37°C for 1 h. As a positive control, total lysis of the RBC was accomplished by incubation with 0.1% SDS. For each condition, three technical replicates were performed. After incubation, the RBC were centrifuged at 800 × g for 10 min and the amount of hemoglobin released into the supernatant was determined by measuring the optical density OD420 using a SpectraMax i3x microplate reader (Molecular Devices) ([Zaet et al., 2017]).
Molecule,fragment found [1],fragment found [2],also measured
RRIFKRLFKYLRRF,"(R) IFKRLFKYLRRF 3–14, major, 12 h; also recorded: (R) RIFKRLFKYLRRF 2–14, major, 12 h","(R) RF 13–14, major, 18 h; also recorded: (K) YLRR (F) 10–13, major, 18 h; also recorded: (R) F 14, major, 18 h; also recorded: (K) YLR (R) 10–12, major, 18 h",
DapHorLFDapDapLLDabYLHorDabF,"(Hor) LFDapDapLLDabYLHorDabF 3–14, major, 12 h; also recorded: (Dap) HorLFDapDapLLDabYLHorDabF 2–14, major, 12 h","DapHorLFDapDapLLDab (Y) 1–9, major, 18 h; also recorded: DapHorLFDapDapLLDabYLHor (Dab) 1–12, major, 18 h",
KRLFKKLLKYLRKF,"(R) LFKKLLKYLRKF 3–14, major, 12 h; also recorded: (K) RLFKKLLKYLRKF 2–14, major, 12 h","(R) LFK (K) 3–5, major, 18 h; also recorded: (K) LLK (Y) 7–9, major, 18 h; also recorded: (K) YLR (K) 10–12, major, 18 h; also recorded: (K) KLLK (Y) 6–9, major, 18 h; also recorded: (R) LFKK (L) 3–6, major, 18 h",
KRLFKKLLKYLRK[2Thi],"(L) FKKLLKYLRKThi 4–14, major, 12 h","(K) Thi 14, major, 18 h; also recorded: (K) KLLK (Y) 6–9, major, 18 h; also recorded: (R)LFKK (L) 3–6, major, 18 h; also recorded: (K) LLK (Y) 7–9, major, 18 h; also recorded: (K) YLR (K) 10–12, major, 18 h; also recorded: (R) LFK (K) 3–5, major, 18 h",
KRL[2Thi]KKLLKYLRK[2Thi],"(R) LThiKKLLKYLRKThi 3–14, major, 12 h; also recorded: (K) RLThiKKLLKYLRKThi 2–14, major, 12 h","(K) Thi 14, major, 18 h; also recorded: (R) LThiKK (L) 3–6, major, 18 h; also recorded: (K) KLLK (Y) 6–9, major, 18 h; also recorded: (K) LLK (Y) 7–9, major, 18 h; also recorded: (K) YLR (K) 10–12, major, 18 h; also recorded: (R) LThiK (K) 3–5, major, 18 h",
DabHorLFDabDabLLDabYLHorDabF,"(Hor) LFDabDabLLDabYLHorDabF 3–14, major, 12 h; also recorded: (Dab) HorLFDabDabLLDabYLHorDabF 2–14, major, 12 h","(Dab) HorLFDab (Dab) 2–5, major, 18 h; also recorded: (Dab) HorLFDabDabLLDab (Y) 2–9, major, 18 h",
HorRLFKKLLKYLRKThi,"(R) LFKKLLKYLRKThi 3–14, major, 12 h; also recorded: (Hor) RLFKKLLKYLRKThi 2–14, major, 12 h","(K) KLLK (Y) 6–9, major, 18 h; also recorded: (R) LFKK (L) 3–6, major, 18 h; also recorded: (K) LLK (Y) 7–9, major, 18 h; also recorded: (K) YLR (K) 10–12, major, 18 h; also recorded: (R) LFK (K) 3–5, major, 18 h",
[Aib]RLFKKLLKYLRK[2Thi],"(R) LFKKLLKYLRKThi 3–14, major, 12 h","(K) KLLK (Y) 6–9, major, 18 h; also recorded: (R) LFKK (L) 3–6, major, 18 h; also recorded: (K) LLK (Y) 7–9, major, 18 h; also recorded: (K) YLR (K) 10–12, major, 18 h; also recorded: (R) LFK (K) 3–5, major, 18 h",
KRLFKRLFKYLRRF,"(K) YLRRF 10–14, major, 12 h; also recorded: (K) RLFKRLFKYLRRF 2–14, major, 12 h","(R) RF 13–14, major, 18 h; also recorded: (K) YLRR (F) 10–13, major, 18 h; also recorded: (R) F 14, major, 18 h; also recorded: (K) YLR (R) 10–12, major, 18 h",
KRLFKRLFKYLRRF-NH2 [LP01],,,"remaining at 24 h, 0.5 mg/mL [3]: 33.3 ± 5.69%; MIC [4]: 1 µg/mL; MIC [5]: 2 µg/mL; IC50 [6]: 16.6 ± 3.79 µM; metabolised at 2 h, 0.1 mg/mL [7]: > 40%; metabolised at 4 h, 0.1 mg/mL [7]: > 50%; MIC [8]: 4 µg/mL; MIC [9]: 4 µg/mL; MIC [10]: 1 µg/mL; MIC [11]: 2 µg/mL; MIC [12]: 2 µg/mL; Hemolysis rate (%) ([13]; 64 μM): 29.58 ± 0.83%; Hemolysis rate (%) ([13]; 128 μM): 37.14 ± 1.29 %"
DabRLThiDapDabLLDabYLHorDabF,"(R) LThiDapDabLLDabYLHorDab F 3–14, major, 12 h; also recorded: (Dab) RLThiDapDabLLDabYLHorDabF 2–14, major, 12 h","(Dab) RLThiDapDabLLDab (Y) 2–9, major, 18 h; also recorded: (R) LThiDapDabLLDabYLHor (Dab) 3–12, major, 18 h",
CC(C)C[C@H](NC(=O)[C@H](CCCCN)NC(=O)[C@H](CCCCN)NC(=O)[C@H](Cc1ccccc1)NC(=O)[C@H](CC(C)C)NC(=O)[C@H](CCCNC(=N)N)NC(=O)[C@@H](N)CCCCN)C(=O)N[C@@H](CC(C)C)C(=O)N[C@@H](CCCCN)C(=O)N[C@@H](Cc1ccc(O)cc1)C(=O)N[C@@H](CC(C)C)C(=O)N[C@@H](CCCNC(=N)N)C(=O)N[C@H](CCCCN)C(=O)N[C@@H](Cc1ccccc1)C(N)=O [DP03] (H-KRLFKKLLKYLR[dK]F-NH2),,,"remaining at 24 h, 0.5 mg/mL [3]: 73.5 ± 4.83%; MIC [4]: 1 µg/mL; MIC [5]: 1 µg/mL; IC50 [6]: 45 ± 5.96 µM; metabolised at 2 h, 0.1 mg/mL [7]: > 40%; metabolised at 4 h, 0.1 mg/mL [7]: > 50%; MIC [8]: 4 µg/mL; MIC [9]: 8 µg/mL; MIC [10]: 1 µg/mL; MIC [11]: 2 µg/mL; MIC [12]: 2 µg/mL; Hemolysis rate (%) ([13]; 64 μM): 41.96 ± 4.14%; Hemolysis rate (%) ([13]; 128 μM): 51.55 ± 3.89%"
krLFkkLLKYLRkF,"(K) YLRkF 10–14, major, 12 h; also recorded: krLFkkLL (K) 1–8, major, 12 h","(K) YLR (k) 10–12, major, 18 h; also recorded: krLFkkLLK (Y) 1–9, major, 18 h; also recorded: (K) YLRkF 10–14, major, 18 h",
DapHorLFDapDapLLDabYLHorDabThi,"(Dap) HorLFDapDapLLDabYLHorDabThi 2–14, major, 12 h","(Dap) HorLFDap (Dap) 2–5, major, 18 h; also recorded: DapHorLFDapDapLLDab (Y) 1–9, major, 18 h; also recorded: DapHorLFDapDapLLDabYLHor (Dab) 1–12, major, 18 h; also recorded: (Dap) HorLFDapDapLLDabYLHorDabThi 2–14, major, 18 h",
DabHorLFDabDabLLDabYLRDabF,"(Hor) LFDabDabLLDabYLRDabF, major, 12 h","(Dab) YLRDab (F) 10–13, major, 18 h; also recorded: (Dab) DabLLDabYLRDab (F) 6–13, major, 18 h; also recorded: (Hor) LFDabDabLLDabYLR (Dab) 3–12, major, 18 h; also recorded: (Dab) HorLFDabDabLLDab (Y) 2–9, major, 18 h; also recorded: DabHorLFDabDabLLDabYLR (Dab) 1–12, major, 18 h",
